The results in this text go back to patent US20250361277A1, “PROTEASE-RESPONSIVE SURFACE-POTENTIAL-TUNABLE PEPTIDE CONSTRUCTS FOR SELECTIVE IMAGING AND ACCURATE INHIBITOR SCREENING” (The Regents of the University of California, priority 2024, published 2025).

In series [1] the target is Recombinant SARS-CoV-2 Mpro (Severe acute respiratory syndrome coronavirus 2, UniProt P0DTD1).
The target of series [2] is Recombinant Mpro (Severe acute respiratory syndrome coronavirus 2, UniProt P0DTD1).
Series [3] deals with SARS-CoV-2 infected TMPRSS2-Vero cells. It is filed as cell-based, SARS-CoV-2 (USA-WA1/2020).
Series [4] relates to A549 cells, HeLa cells, and MCF-7-GFP cells. The method, then:
(§1) The TMPRSS2 selective imaging capability of EGTP was tested via the three different cell lines.
Cytotoxicity assay. […] The fluorescence of Resazurin solution at 690 nm using an excitation wavelength of 560 nm was recorded by a SYNERGY H1™ microplate reader (BioTek) with standard operation procedures.

The target in series [5] is T1, TMPRSS2 (Homo sapiens, UniProt O15393). The experiment in a line: TMPRSS2 inhibitor screening with EGTP in TMPRSS2-Vero cells (CLSM). Details: effect of inhibitor on yellow fluorescence of EGTP: dose or concentration left out as unconfirmed. Conditions: for effect of inhibitor on fluorescence intensity of EGTP: 100 nM inhibitor 1 h, 10 μM EGTP 1 h.
T1 sequence (O15393 whole entry): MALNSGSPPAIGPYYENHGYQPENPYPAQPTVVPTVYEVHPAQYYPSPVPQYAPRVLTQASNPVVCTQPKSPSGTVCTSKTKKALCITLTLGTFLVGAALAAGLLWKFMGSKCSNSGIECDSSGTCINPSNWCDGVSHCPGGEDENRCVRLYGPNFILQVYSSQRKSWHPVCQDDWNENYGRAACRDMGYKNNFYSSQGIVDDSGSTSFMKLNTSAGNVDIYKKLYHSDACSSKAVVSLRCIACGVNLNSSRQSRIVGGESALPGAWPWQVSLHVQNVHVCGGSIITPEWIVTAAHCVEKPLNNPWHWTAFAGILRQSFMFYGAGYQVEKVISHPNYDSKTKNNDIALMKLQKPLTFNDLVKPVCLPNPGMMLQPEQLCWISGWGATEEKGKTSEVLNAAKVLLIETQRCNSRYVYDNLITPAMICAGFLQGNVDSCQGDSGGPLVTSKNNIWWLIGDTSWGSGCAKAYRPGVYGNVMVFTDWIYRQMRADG
Experimental: (§5) To further screen TMPRSS2 inhibitors with EGTP, Vero cells and TMPRSS2-Vero cells as robust cell models were chosen for cell imaging (FIG. 4a). Vero cells and TMPRSS2-Vero cells were incubated with different concentrations (1 mM, 5 mM, 10 mM, and 20 mM) of PyTPE and EGTP (Figures S23, S24, S25, and S26).
(§6) Incubation living cells with probes. For confocal laser scanning microscopy imaging, A549 cells, HeLa cells, MCF-7-GFP cells, Vero cells, and TMPRSS2-Vero cells were seeded into cell culture dishes at a density of 2.0×10^5 in growth medium (DMEM supplemented with 10% FBS, 200 mL). After overnight incubation, the cells were washed with phosphate-buffered saline (PBS, pH 7.4) three times. A solution of the indicated probe in PBS was then added, and the cells were incubated in a 5% CO2 atmosphere at 37° C. for further use. […] The supernatant was then discarded, and the cells were washed gently twice with PBS and fixed with 2% paraformaldehyde (PFA) at room temperature for 20 min prior to optical imaging.
(§7) Confocal laser scanning microscopy. […] A 405 nm laser was chosen for the excitation of AIEgens and the emission was collected at 550-620 nm. A 488 nm laser was chosen for the excitation of GFP (or MTG), the emission was collected at 500-530 nm. […] All fluorescence images were analyzed with an IMAGE™ software (Zeiss).
Series [6] has as its target T1, TMPRSS2. The experiment in a line: Impact of protease inhibitors on EGTP fluorescence with TMPRSS2 in buffer. The class given is biochemical. The arrangement: expressed in transfected cells; host or cells: TMPRSS2-Vero cells.
Series [7] has as its system HeLa cells. The class given is cell-based. The method, then: as §1
Series [8] addresses T1, TMPRSS2. As to the kind of experiment: Cleavage of probes by recombinant TMPRSS2 (HPLC and ESI-MS). The class given is biochemical. The following applies: incubation for 1 h at 37° C. in 20 mM Tris-HCl buffer (pH 8.0).
The subject of series [9] is MCF-7-GFP cells. The experiment in a line: CLSM imaging of MCF-7-GFP cells (TMPRSS2 high expression). The class given is cell-based. Conditions: 10 μM probe, 1 h. The method, then: (§2) TMPRSS2 selective imaging in cancer cells with EGTP.
(§3) Incubation living cells with probes.
(§4) Confocal laser scanning microscopy.

Series [10] addresses T1, TMPRSS2. The experiment in a line: Enzymatic fluorescence assay of probes with TMPRSS2. It is filed as biochemical. Details: expressed in transfected cells; host or cells: TMPRSS2-Vero cells. Conditions: Tris-HCl buffer with 1% DMSO, excitation 405 nm. The method, then: Recombinant TMPRSS2 was added into the working solution and then diluted to a total of 100 μl with the same Tris-HCl buffer. The reaction mixture was incubated at 37° C. for 1 h for UV-Vis absorption and fluorescence measurement. The solution was excited at 405 nm, and the emission was collected from 430 nm to 800 nm.

Series [11] concerns A549 cells. The experiment in a line: CLSM imaging of A549 cells (TMPRSS2 low expression). The class given is cell-based. The following applies: 10 μM probe, 1 h. The procedure: as §2, §3, §4
In series [12] the test system is SARS-CoV-2 infected TMPRSS2-Vero cells. As to the kind of experiment: SARS-CoV-2 infected TMPRSS2-Vero cells with PSGMR and Mpro inhibitor GC376 (CLSM). The class given is cell-based, SARS-CoV-2 (USA-WA1/2020).
Series [13] concerns TMPRSS2-Vero cells. It is filed as cell-based.
Experimental: as §5, §6, §7
The test system of series [14] is Vero cells. The experiment in a line: CLSM imaging of Vero cells. The following applies: 1, 5, 10, 20 mM as printed, 1 h.
Series [15] deals with HEK 293T cells.
[16] abbreviates: 10 μM PSGMR, increasing GC376 (2-12 μM).

Structures can show the parent of a compound that is named as a salt. Where two headings read alike, the source gives them in different places. No end group written: not given here.

Consider (Pra)GSAVLQ/SGFRKMAGRRRRRR [PMR], for which the “cleavage by Mpro” value is “can be cleaved by M^pro” in [1]; “can be cleaved by Mpro between Q and S” in series [1] (pH 8). The “aggregation and fluorescence on incubation with Mpro (time-dependent spectra)” value in [2] was “can easily aggregate with strong fluorescence”. Further, the “fluorescence intensity after incubation with Mpro” value in series [2] was “weaker than that of PSGMR”. Besides, the “killing / inhibition of infected cells” value in series [3] is “can also inhibit infected cells”. In addition, the “yellow and red fluorescence of infected cells” value in series [3] (10 μM probe) is “weaker than that of PSGMR”. In addition, the “red and yellow fluorescence and cell morphology of infected cells” value in [3] (PSGMR versus PMR) is on record as “less than the infected cells with PSGMR”.
Turning to `C#CC[C@H](NC(=O)CNC(=O)CNC(=O)[C@H](CCCNC(=N)N)NC(=O)[C@H](C)NC(=O)[C@H](CCC(N)=O)NC(=O)CNC(=O)CNC(=O)CNC(=O)[C@H](CCC(=O)O)NC(=O)[C@H](CCC(=O)O)NC(=O)[C@H](CCC(=O)O)NC(=O)[C@H](CCC(=O)O)NC(=O)[C@H](CCC(=O)O)NC(=O)[C@H](CCC(=O)O)NC(=O)[C@H](CCC(=O)O)NC(=O)[C@H](CCC(=O)O)NC(=O)[C@@H](N)CCC(=O)O)C(N)=O` [EGT, EEEEEEEEEGGGQAR (SEQ ID NO:4)], the toxicity to cells result in [4] (1 μM to 20 μM, 48 h) was “negligible toxicity”.
For the compound `CN(C)C(=O)COC(=O)Cc1ccc(OC(=O)c2ccc(NC(=N)N)cc2)cc1` [Camostat, camostat mesylate], the “effect of inhibitor on yellow fluorescence of EGTP” value in [5] (Camostat before adding EGTP) is given as “gradually decreased”. The “effect of inhibitor on fluorescence of EGTP with TMPRSS2 incubation” value in series [6] is given as “significantly reduced fluorescence of EGTP”.
On to `Cc1ccc(N)cc1C(=O)N[C@H](C)c1cccc2ccccc12` [GRL0617], for which the “effect of inhibitor on fluorescence intensity of EGTP” value in [5] is given as “no significant effect on the fluorescence intensity of EGTP”.
Take (Pra)KLVFFGSAVLQ/SGFRKMARRRRRR [PSMR]: the “cleavage by Mpro” value in series [1] (pH 8) is recorded as “not”. For the same compound, in series [2], the “aggregation and fluorescence on incubation with Mpro (time-dependent spectra)” value is recorded as “cannot aggregate with weak fluorescence”; the “fluorescence intensity after incubation with Mpro” value is given as “decreased upon incubation with Mpro”.
Regarding “TGP: control probe without polyglutamic acid: peptide QARGG (SEQ ID NO:2) linked by Propargylglycine (Pra) to the dye PyTPE (also: linked by Pra to dye PyTPE, end not given here)”, the “yellow fluorescence in HeLa cells” value in series [7] (10 μM probe, 1 h) is recorded as “strong yellow fluorescence”. Besides, the “cleavage by TMPRSS2” value in series [8] is given as “can be cleaved by TMPRSS2”. Also, the “yellow fluorescence in MCF-7-GFP cells” value in [9] is reported as “strong yellow fluorescence”. Further, in [10], the “fluorescence intensity after incubation with TMPRSS2 (comparison of probes)” value is “stronger than that of EGTP and EGEP”. Besides, the “yellow fluorescence in A549 cells” value in [11] is on record as “strong yellow fluorescence”.
With `CC(C)C[C@H](NC(=O)OCc1ccccc1)C(=O)N[C@@H](C[C@@H]1CCNC1=O)C(O)S(=O)(=O)[O-].[Na+]` (some centres unmarked) [GC376], the “red and yellow fluorescence with inhibitor” value in [12] (10 μM PSGMR and 2 μM, 6 μM, and 12 μM GC376) is reported as “markedly decreased”. In series [12] (setting [16]), the “average red fluorescence intensity, decrease” value is on record as 32.6 to 11.6 times and the “average yellow fluorescence intensity, decrease” value is reported as 5.8 to 3.6 times. Further, the “effect of inhibitor on fluorescence intensity of EGTP” value in series [5] is “no significant effect on the fluorescence intensity of EGTP”.
Take CGAVLQDDD [CGAVLQDDD (SEQ ID NO: 11)]: the “cleavage by Mpro” value in series [1] is recorded as “not cleaved by Mpro”.
In the case of TetraPhenylEthene Pyridinium [PyTPE], in series [4], the “concentration that can cause significant cytotoxicity” value was above 5 µM and the “cytotoxicity (metabolic activity)” value is “obviously cytotoxic”. The “yellow fluorescence in TMPRSS2-Vero cells” value in series [13] is listed as “enhanced with increasing concentrations”. The “overlap of yellow fluorescence with Mito tracker green (MTG)” value in series [7] is “overlapped well with the green fluorescence of MTG”. For the same compound, the “yellow fluorescence in Vero cells” value in [14] is “enhanced with increasing concentrations”. In addition, in series [15], the “cytotoxicity (metabolic activity)” value was “obviously cytotoxic” and the “high concentration that caused significant cytotoxicity” value stood at 20 µM.
AVLQFFVLKC [AVLQFFVLKC (SEQ ID NO:12)]: in [1], the “cleavage by Mpro” value is “not cleaved by Mpro”.
